Reference: patent publication US6489440B1, “Cyclic compounds” (Basilea Pharmaceutica AG, priority 1998, dated 2002)
Numbered stars: 1 amine (or outer) side, 2 acyl side, 3 side chain; on linkers, the order of the positions; unused ones are H or OH. Bridge positions count the residues as written; N and C are the ends. Square brackets hold non-standard residues; d marks the D form. Peptide text beside a SMILES is read from it. ξ: configuration not given here. X7 = CCCCCCCCCCCCC(C)[C@H](CC(=O)[*:1])O[*:2]; X2 = NC(=O)CC(O)C(N[*:1])C(=O)[*:2]; X1 = O=C(C1C(O)CCN1[*:1])[*:2]; ξY = NC(Cc1ccc(O)cc1)C(=O)O; ξHyp = O=C(O)C1CC(O)CN1; ξOrn = NCCCC(N)C(=O)O; ξT = CC(O)C(N)C(=O)O; ξV = CC(C)C(N)C(=O)O; ξA = CC(N)C(=O)O

Experiments:
[1] = Acute toxicity on administration to mice for 4 weeks; assay type: in vivo; details: 5 mg/kg and 30 mg/kg
[2] = Solubility; details: solvents in which soluble

For `CCCCCCCCCCCCC(C)[C@@H]1CC(=O)NC(C(C)O)C(=O)NC(C)C(=O)NC(Cc2ccc(O)cc2)C(=O)NC(C(C)C)C(=O)N2CC(O)CC2C(=O)NC(C(C)O)C(=O)NC(C(C)O)C(=O)N2CCC(O)C2C(=O)NC(C(O)CC(N)=O)C(=O)NCC(=O)NC(C(C)O)C(=O)NC(CCCN)C(=O)O1` (some centres unmarked) [Aerothricin 1] ([ξT][ξA][ξY][ξV][ξHyp][ξT][ξT][X1][X2]G[ξT][ξOrn]; linker N-C via X7), the acute toxicity [1] was “no acute toxicity” and the Solubility [2] was “Soluble: water, methanol, dimethylsulfoxide”.
